According to ChEMBL document CHEMBL1201862, “PubChem BioAssay data set” (2004):
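How tested: cells in 96-well plates exposed to compound for 48 hours at five concentrations. Abbreviation: GI50, concentration required for 50% inhibition of growth.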 The source made the active and inactive calls. Rule as the data show it: active = GI50 up to about 1.1 µM and inactive = higher.

What was measured:
Experiment in all cases: NCI-60 cell line screen, 48 h
IGROV-1 = tested on: IGROV-1
OVCAR-4 = tested on: OVCAR-4
HOP-62 = tested on: HOP-62
Hs-578T = tested on: Hs-578T
K562 = tested on: K562
OVCAR-5 = tested on: OVCAR-5
SNB-75 = tested on: SNB-75
MDA-MB-231 = tested on: MDA-MB-231
OVCAR-3 = tested on: OVCAR-3
UACC-62 = tested on: UACC-62
M14 = tested on: M14
A549 = tested on: A549
OVCAR-8 = tested on: OVCAR-8
HCT-15 = tested on: HCT-15
NCI/ADR-RES = tested on: NCI/ADR-RES
HL-60 = tested on: HL-60
Malme-3M = tested on: Malme-3M

Compound | GI50 (IGROV-1) | GI50 (OVCAR-4) | GI50 (HOP-62) | GI50 (Hs-578T) | GI50 (K562) | GI50 (OVCAR-5) | GI50 (SNB-75) | GI50 (MDA-MB-231) | GI50 (OVCAR-3) | GI50 (UACC-62) | GI50 (M14) | GI50 (A549) | GI50 (OVCAR-8) | GI50 (HCT-15) | GI50 (NCI/ADR-RES) | GI50 (HL-60) | GI50 (Malme-3M)
CCOC(=O)c1csc(NC(=O)CN2CCOCC2)n1 | > 100 µM (inactive) | > 100 µM (inactive) | > 100 µM (inactive) | > 100 µM (inactive) | > 100 µM (inactive) | > 100 µM (inactive) | > 100 µM (inactive) | > 100 µM (inactive) | > 100 µM (inactive) | > 100 µM (inactive) | > 100 µM (inactive) | > 100 µM (inactive) | > 100 µM (inactive) | > 100 µM | > 100 µM (inactive) | > 100 µM (inactive) | –
Cc1c(OCc2cccc3ccccc23)ccc2c(=O)cc(SCCN3CCOCC3)oc12 | > 100 µM (inactive) | 38.5 µM (inactive) | > 100 µM (inactive) | > 100 µM (inactive) | > 100 µM (inactive) | 78.2 µM (inactive) | > 100 µM (inactive) | > 100 µM (inactive) | > 100 µM (inactive) | > 100 µM (inactive) | > 100 µM (inactive) | > 100 µM (inactive) | > 100 µM (inactive) | > 100 µM | > 100 µM (inactive) | > 100 µM (inactive) | –
Cn1c(=O)c2c(nc(Nc3ccc(Cl)cc3)n3c(=O)n(-c4ccccc4)c(=O)n23)n(C)c1=O | > 100 µM (inactive) | > 100 µM (inactive) | > 100 µM (inactive) | > 100 µM (inactive) | > 100 µM (inactive) | > 100 µM (inactive) | 15.5 µM (inactive) | > 100 µM (inactive) | > 100 µM (inactive) | > 100 µM (inactive) | > 100 µM (inactive) | > 100 µM (inactive) | > 100 µM (inactive) | > 100 µM | > 100 µM (inactive) | > 100 µM (inactive) | –
Cc1ccc2c(c1)C=CC(C#N)N2C(=O)Oc1ccccc1 (centres undefined) | 36 µM (inactive) | 24.7 µM (inactive) | – | 41.6 µM (inactive) | 23.7 µM (inactive) | 61.4 µM (inactive) | 40.6 µM (inactive) | 38.9 µM (inactive) | – | 31.4 µM (inactive) | 40.8 µM (inactive) | 29.5 µM (inactive) | 17.4 µM (inactive) | 21.1 µM | 20.2 µM (inactive) | 18.9 µM (inactive) | 33 µM (inactive)
O=C1c2ccccc2S(=O)(=O)c2c1cccc2[N+](=O)[O-] | 1.9 µM (inactive) | 2.12 µM (inactive) | 5.32 µM (inactive) | 4.25 µM (inactive) | > 10 µM (inactive) | 3.45 µM (inactive) | 3.42 µM (inactive) | 2.29 µM (inactive) | 1.22 µM (inactive) | 1.72 µM (inactive) | 1.61 µM (inactive) | 4.7 µM (inactive) | 2.1 µM (inactive) | 1.35 µM | 2.38 µM (inactive) | 1.33 µM (inactive) | 1.46 µM (inactive)
CC(=O)NC1C(Sc2ncn(C3OC(CO)C(O)C(O)C3NC(C)=O)n2)OC(CO)C(O)C1O (centres undefined) | > 100 µM (inactive) | > 100 µM (inactive) | > 100 µM (inactive) | > 100 µM (inactive) | – | > 100 µM (inactive) | – | > 100 µM (inactive) | > 100 µM (inactive) | > 100 µM (inactive) | > 100 µM (inactive) | > 100 µM (inactive) | > 100 µM (inactive) | > 100 µM | > 100 µM (inactive) | > 100 µM (inactive) | > 100 µM (inactive)
[O-][S+](Nc1ccccc1)c1ccc(Cl)cc1 (centres undefined) | 24.7 µM (inactive) | > 100 µM (inactive) | > 100 µM (inactive) | 38.1 µM (inactive) | > 100 µM (inactive) | > 100 µM (inactive) | – | > 100 µM (inactive) | > 100 µM (inactive) | 14.9 µM (inactive) | > 100 µM (inactive) | 48.4 µM (inactive) | > 100 µM (inactive) | 75.2 µM | 64.9 µM (inactive) | > 100 µM (inactive) | > 100 µM (inactive)
CC(=O)OC1CC[C@@]2(C)C(=CC[C@@H]3[C@@H]2CC[C@]2(C)Nc4c(cnn4-c4ccc(F)cc4)C[C@@H]32)C1 (some centres undefined) | 42.2 µM (inactive) | > 53.5 µM (inactive) | 5.5 µM (inactive) | 14.1 µM (inactive) | 21.4 µM (inactive) | > 87.5 µM (inactive) | 16.8 µM (inactive) | 33 µM (inactive) | > 39.4 µM (inactive) | 15.8 µM (inactive) | 30.5 µM (inactive) | 24.3 µM (inactive) | 40 µM (inactive) | 20 µM | 60.1 µM (inactive) | 2.93 µM (inactive) | 9.35 µM (inactive)
NNC(=O)c1cc([N+](=O)[O-])ccc1NC(=O)C12CC3CC(CC(C3)C1)C2 | 1.9 µM (inactive) | 2.62 µM (inactive) | 16.3 µM (inactive) | 5.66 µM (inactive) | 7.48 µM (inactive) | 13.4 µM (inactive) | – | 5.01 µM (inactive) | 3.15 µM (inactive) | 10 µM (inactive) | 13 µM (inactive) | 17.8 µM (inactive) | 14.9 µM (inactive) | 0.635 µM | 15.9 µM (inactive) | 3.09 µM (inactive) | 16.5 µM (inactive)
